Results: patent US12398107B2, “Fungicidal nitroanilino substituted pyrazoles” (FMC Corporation, priority 2018, dated 2025)

Assays:
Format in all cases: in vivo
Septoria tritici = assay: Test A: wheat leaf blotch, preventive spray on wheat seedlings; details: 100 = 100% disease control, 0 = no control relative to controls
How it was run: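 Preventive test: seedlings sprayed to run-off one day before Septoria tritici spore inoculation, with ppm doses in acetone/water containing 250 ppm PEG400. After 48 h at 24 °C in saturated air and 17 days at 20 °C, plants were scored 0–100 for disease control versus untreated controls.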

[1] = system: Puccinia recondita f. sp. tritici; assay: Test B: wheat leaf rust, preventive spray on wheat seedlings; details: 100 = 100% disease control, 0 = no control relative to controls
How it was run: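 Wheat seedlings got a run-off spray (ppm, acetone/water 50/50, 250 ppm PEG400) and one day later a spore inoculum. After 24 h at 20° C. in saturated air and 7 days at 20° C., disease was scored as % control relative to controls (100 = full control).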

[2] = system: Blumeria graminis f. sp. tritici; assay: Test C: wheat powdery mildew, preventive spray on wheat seedlings; details: rated after 8 days, 100 = 100% disease control, 0 = no control
How it was run: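 Wheat seedlings got a run-off spray of test suspension (ppm in acetone/water 50/50, 250 ppm PEG400, acetone 3% of volume), then spore-dust inoculation with wheat powdery mildew one day later. After 8 days' growth-chamber incubation at 20° C, disease control scored visually on a 0–100 scale versus untreated controls.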

Phakopsora pachyrhizi = assay: Test D: Asian soybean rust, preventive spray on soybean seedlings; details: 100 = 100% disease control, 0 = no control
How it was run: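 Soybean seedlings sprayed to run-off with compound suspension (ppm, in 50/50 acetone/water with 250 ppm PEG400), inoculated next day with P. pachyrhizi spores, held 24 h saturated at 22°C then 8 days at 22°C. Visual rating 0-100% disease control relative to controls.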

Botrytis cinerea = assay: Test E: tomato Botrytis, preventive spray on tomato seedlings; details: 100 = 100% disease control, 0 = no control
How it was run: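 Preventive test: spore inoculation one day after run-off spraying of compound suspension (3% acetone, acetone/water 50/50, 250 ppm PEG400). Incubation 20 °C saturated humidity for 48 h, followed by 3 days at 24 °C growth chamber; disease control scored visually, 100 = full control.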

Alternaria solani = assay: Test F: tomato early blight, preventive spray on tomato seedlings; details: 100 = 100% disease control, 0 = no control
How it was run: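 Preventive test: one day after seedlings were sprayed to run-off with ppm-level suspensions (acetone/water 50/50, 250 ppm PEG400), A. solani spore inoculation followed. Incubation was 48 h at 27° C in saturated air plus 3 days at 20° C; disease control was scored visually versus controls (100 = full control).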

| SMILES | Test A disease control rating (wheat leaf blotch) (Septoria tritici; 50 ppm) [%] | Test B disease control rating (wheat leaf rust) ([1]; 50 ppm) [%] | Test C disease control rating (wheat powdery mildew) ([2]; 50 ppm) [%] | Test D disease control rating (Asian soybean rust) (Phakopsora pachyrhizi; 50 ppm) [%] | Test E disease control rating (tomato Botrytis) (Botrytis cinerea; 50 ppm) [%] | Test F disease control rating (tomato early blight) (Alternaria solani; 50 ppm) [%] | pest or weed control at 10 ppm (Septoria tritici; Zymoseptoria tritici, 10 ppm, read-out: Test A disease control rating (wheat leaf blotch)) [%] | pest or weed control at 50 ppm (Septoria tritici; Zymoseptoria tritici, 50 ppm, read-out: Test A disease control rating (wheat leaf blotch)) [%] | pest or weed control at 10 ppm ([1]; 10 ppm, read-out: Test B disease control rating (wheat leaf rust)) [%] | pest or weed control at 50 ppm ([1]; 50 ppm, read-out: Test B disease control rating (wheat leaf rust)) [%] | pest or weed control at 10 ppm ([2]; Blumeria graminis, 192 h, 10 ppm, read-out: Test C disease control rating (wheat powdery mildew)) [%] | pest or weed control at 50 ppm ([2]; Blumeria graminis, 192 h, 50 ppm, read-out: Test C disease control rating (wheat powdery mildew)) [%] | pest or weed control at 10 ppm (Phakopsora pachyrhizi; Phakopsora pachyrhizi, 10 ppm, read-out: Test D disease control rating (Asian soybean rust)) [%] | pest or weed control at 50 ppm (Phakopsora pachyrhizi; Phakopsora pachyrhizi, 50 ppm, read-out: Test D disease control rating (Asian soybean rust)) [%] | pest or weed control at 10 ppm (Botrytis cinerea; Botrytis cinerea, 10 ppm, read-out: Test E disease control rating (tomato Botrytis)) [%] | pest or weed control at 50 ppm (Botrytis cinerea; Botrytis cinerea, 50 ppm, read-out: Test E disease control rating (tomato Botrytis)) [%] | pest or weed control at 10 ppm (Alternaria solani; Alternaria solani, 10 ppm, read-out: Test F disease control rating (tomato early blight)) [%] | pest or weed control at 50 ppm (Alternaria solani; Alternaria solani, 50 ppm, read-out: Test F disease control rating (tomato early blight)) [%] |
| --- | --- | --- | --- | --- | --- | --- | --- | --- | --- | --- | --- | --- | --- | --- | --- | --- | --- | --- |
| Cc1nn(C)c(Nc2c(F)cccc2[N+](=O)[O-])c1-c1c(F)cccc1F [Compound 63] | 100 | 99 | 86 | 0 | 100 | 96 |  |  |  |  |  |  |  |  |  |  |  |  |
| COc1ccc(-c2c(C)nn(C)c2Nc2c(F)cc(F)cc2[N+](=O)[O-])c(Cl)c1 [Compound 64] | 100 | 100 | 98 | 97 | 98 | 99 |  |  |  |  |  |  |  |  |  |  |  |  |
| COc1ccc(-c2c(C)nn(C)c2Nc2c(Cl)cc(Cl)cc2[N+](=O)[O-])c(Cl)c1 [Compound 65] | 94 | 89 | 56 | 66 | 16 | 46 |  |  |  |  |  |  |  |  |  |  |  |  |
| COc1ccc(-c2c(C)nn(C)c2Nc2c(Cl)cc(C)cc2[N+](=O)[O-])c(Cl)c1 [Compound 66] | 100 | 100 | 98 | 97 | 98 | 96 |  |  |  |  |  |  |  |  |  |  |  |  |
| Cc1nn(C)c(Nc2c(Cl)cc(F)cc2[N+](=O)[O-])c1-c1ccc(F)cc1F [Compound 67] | 100 | 100 | 89 | 69 | 98 | 33 |  |  |  |  |  |  |  |  |  |  |  |  |
| Cc1nn(C)c(Nc2c(F)cccc2[N+](=O)[O-])c1-c1c(F)cc(F)cc1Cl [Compound 68, 4-(2-chloro-4,6-difluorophenyl)-N-(2-fluoro-6-nitrophenyl)-1,3-dimethyl-1H-pyrazol-5-amine] |  |  |  |  |  |  | 100 | 100 | 100 | 100 | 96 | 100 | 32 | 99 | 100 | 100 | 98 | 99 |
| Cc1nn(C)c(Nc2c(F)cccc2[N+](=O)[O-])c1-c1ccc(Cl)cc1Cl [Compound 69] | 100 | 100 | 97 | 77 | 100 | 99 |  |  |  |  |  |  |  |  |  |  |  |  |
| COc1cc(F)c(-c2c(C)nn(C)c2Nc2c(F)cccc2[N+](=O)[O-])c(F)c1 [Compound 70] | 100 | 100 | 99 | 84 | 99 | 99 |  |  |  |  |  |  |  |  |  |  |  |  |
| CCn1nc(C)c(-c2ccc(F)cc2Cl)c1Nc1c(F)cccc1[N+](=O)[O-] [Compound 71] | 100 | 100 | 99 | 82 | 99 | 98 |  |  |  |  |  |  |  |  |  |  |  |  |
